Data: patent publication US11021444B2, “Antiviral compounds” (priority 2013, dated 2021)
Where two headings read alike, the source gives them in different places.

Columns and labels:
recombinant RSV complex = recombinant RSV complex (Human respiratory syncytial virus A, UniProt P28887); assay: RSV Polymerase Inhibition Assay; type: biochemical
Method in brief: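 10 nM recombinant RSV polymerase complex in Tris-HCl pH 7.5, 6 mM MgCl2 with RNA oligonucleotide template and radionucleotides, incubated 2 h at 30 °C with increasing inhibitor concentrations. Reaction stopped with EDTA; radiolabeled RNA product counted by scintillation.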

RSV replicon = assay: microbe, parasite or virus in culture; type: cell-based; settings: human respiratory syncytial virus, read-out: EC50, the concentration of the drug required for reducing RSV replicon RNA by 50%
Procedure: The Renilla Luciferase Assay System (Promega, Cat. #E2820) was used to measure anti-RSV replicon activity. […] Luminescence was recorded using a Perkin Elmer multilabel counter Victor3V. EC50, the concentration of the drug required for reducing RSV replicon RNA by 50% in relation to the untreated cell control value, was calculated from the plot of percentage reductions of the optical density (OD) value against the drug concentrations using the Microsoft Excel forecast function.

[1] = Cytotoxicity Determination (CCK-8, without addition of virus); type: cell-based; settings: human, 50% cytotoxicity concentration (CC50)
Method in brief: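 HEp-2 cells were seeded at 1,500 cells/well one day before compound addition. Compounds were tested without virus in duplicate over 7 points from 100 μM in 1/2 steps, with 1% final DMSO, 5 days at 37 °C, 5% CO2. Viability was read by CCK-8 after 3-4 hours.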

[2] = test system: Respiratory Syncytial Virus (RSV) long strain; assay: microbe, parasite or virus in culture; type: cell-based; settings: human respiratory syncytial virus, Tables A and B list compounds by EC50 band
Method in brief: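 HEp-2 cells infected with 100 TCID50 virus per well, compounds in duplicate, 9-point 1/3 dilutions from 100 μM or 1 μM, 1% DMSO. After 5 days at 37 °C, cell viability (CPE protection) read by CCK-8 absorbance at 450 nm, 630 nm background.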

[3] = HEp-2, 120 h, read-out: 50% effective concentration (EC50), HEp-2 cells infected with RSV long strain, 5 days, CCK-8 readout
[4] = 120 h, read-out: 50% effective concentration (EC50), HEp-2 cells infected with RSV long strain, 5 days, CCK-8 readout

recombinant RSV complex, sequence (P28887 whole entry): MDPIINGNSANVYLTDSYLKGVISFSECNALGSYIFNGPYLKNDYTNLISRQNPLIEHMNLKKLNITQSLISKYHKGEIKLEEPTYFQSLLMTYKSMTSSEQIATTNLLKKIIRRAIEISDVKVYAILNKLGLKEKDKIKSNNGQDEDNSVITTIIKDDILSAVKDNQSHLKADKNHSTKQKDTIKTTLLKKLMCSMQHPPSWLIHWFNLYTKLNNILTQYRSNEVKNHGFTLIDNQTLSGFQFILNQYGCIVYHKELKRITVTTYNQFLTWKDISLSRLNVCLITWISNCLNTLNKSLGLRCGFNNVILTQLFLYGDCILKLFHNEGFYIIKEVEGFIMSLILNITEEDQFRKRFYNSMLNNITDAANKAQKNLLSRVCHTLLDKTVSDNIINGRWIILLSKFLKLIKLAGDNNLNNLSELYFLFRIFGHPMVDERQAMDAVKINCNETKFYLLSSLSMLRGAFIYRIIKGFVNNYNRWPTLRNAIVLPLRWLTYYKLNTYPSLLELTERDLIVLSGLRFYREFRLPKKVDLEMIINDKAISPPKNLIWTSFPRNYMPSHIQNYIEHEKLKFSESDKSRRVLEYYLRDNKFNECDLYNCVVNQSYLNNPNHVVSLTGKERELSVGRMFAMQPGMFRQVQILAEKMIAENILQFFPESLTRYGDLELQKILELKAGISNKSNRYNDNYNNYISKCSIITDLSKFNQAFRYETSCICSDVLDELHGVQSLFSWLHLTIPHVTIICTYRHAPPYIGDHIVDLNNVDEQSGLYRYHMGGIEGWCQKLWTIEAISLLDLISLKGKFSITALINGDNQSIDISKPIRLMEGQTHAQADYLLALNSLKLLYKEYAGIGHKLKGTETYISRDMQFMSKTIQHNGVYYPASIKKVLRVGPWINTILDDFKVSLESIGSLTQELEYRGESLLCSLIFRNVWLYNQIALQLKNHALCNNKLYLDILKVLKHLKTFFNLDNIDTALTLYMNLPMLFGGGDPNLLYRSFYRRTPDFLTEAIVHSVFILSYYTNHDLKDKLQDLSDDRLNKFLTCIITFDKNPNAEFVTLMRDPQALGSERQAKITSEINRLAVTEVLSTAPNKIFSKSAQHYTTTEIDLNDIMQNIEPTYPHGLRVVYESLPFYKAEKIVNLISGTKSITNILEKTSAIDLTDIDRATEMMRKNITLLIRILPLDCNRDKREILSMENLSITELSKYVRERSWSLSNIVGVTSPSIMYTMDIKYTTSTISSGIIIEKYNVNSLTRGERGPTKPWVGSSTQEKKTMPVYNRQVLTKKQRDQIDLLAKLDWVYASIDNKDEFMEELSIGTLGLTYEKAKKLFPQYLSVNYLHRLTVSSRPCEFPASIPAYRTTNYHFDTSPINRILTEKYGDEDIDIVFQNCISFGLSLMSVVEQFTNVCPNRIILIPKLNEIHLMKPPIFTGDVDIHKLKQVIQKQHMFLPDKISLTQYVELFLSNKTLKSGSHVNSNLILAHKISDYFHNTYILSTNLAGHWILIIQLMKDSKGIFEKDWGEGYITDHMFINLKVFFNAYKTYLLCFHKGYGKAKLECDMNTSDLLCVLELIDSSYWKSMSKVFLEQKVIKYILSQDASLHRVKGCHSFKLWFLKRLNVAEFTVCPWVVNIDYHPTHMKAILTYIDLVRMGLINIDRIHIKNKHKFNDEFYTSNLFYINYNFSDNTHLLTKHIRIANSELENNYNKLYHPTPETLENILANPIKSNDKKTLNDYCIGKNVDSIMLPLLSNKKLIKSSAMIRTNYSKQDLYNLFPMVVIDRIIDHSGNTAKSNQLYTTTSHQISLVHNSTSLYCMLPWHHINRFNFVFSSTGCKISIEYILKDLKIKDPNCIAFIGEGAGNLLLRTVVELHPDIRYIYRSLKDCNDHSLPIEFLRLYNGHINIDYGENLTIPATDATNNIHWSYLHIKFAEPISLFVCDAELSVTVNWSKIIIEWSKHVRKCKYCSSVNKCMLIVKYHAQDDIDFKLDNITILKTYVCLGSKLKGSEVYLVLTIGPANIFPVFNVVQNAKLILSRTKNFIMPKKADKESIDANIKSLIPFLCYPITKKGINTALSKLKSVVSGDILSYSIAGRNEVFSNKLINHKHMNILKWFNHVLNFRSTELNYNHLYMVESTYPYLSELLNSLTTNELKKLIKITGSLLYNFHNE
recombinant RSV complex, sequence (P03421 whole entry, further chain): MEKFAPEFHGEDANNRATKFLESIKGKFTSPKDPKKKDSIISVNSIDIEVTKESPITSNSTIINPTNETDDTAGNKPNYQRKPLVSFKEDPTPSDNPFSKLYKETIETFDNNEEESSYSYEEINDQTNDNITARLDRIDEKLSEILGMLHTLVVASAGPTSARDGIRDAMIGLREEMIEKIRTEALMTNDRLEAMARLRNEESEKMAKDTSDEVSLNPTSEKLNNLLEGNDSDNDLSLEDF

| SMILES | IC50 (recombinant RSV complex) [nM] | EC50 (RSV replicon) [nM] | IC50 (recombinant RSV complex; read-out: IC50 (compound concentration at which the enzyme-catalyzed rate was reduced by 50%), 10 nM recombinant RSV complex, 2 h at 30° C., Tables E, F and G list compounds by IC50 band) [nM] | CC50 at 5 days [1] [µM] | EC50 [2, 3] [nM] | EC50 [2, 4] [nM] |
| --- | --- | --- | --- | --- | --- | --- |
| COc1cc(C(=O)NCC(C)(O)c2ccc(OC)c(-c3ccc(F)c(Cl)c3)n2)ccc1-n1cccn1 (centres unmarked) [Compound 128] | < 1000 | 1000 to 50000 |  |  |  |  |
| COc1cc(C(=O)NCC(C)(O)c2ccc(OC)c(-c3ccc(F)c(Cl)c3)n2)ccc1-c1ccncc1 (centres unmarked) [Compound 147] | < 1000 | < 1000 |  |  |  |  |
| COc1cc(C(=O)NCC(O)(c2cc3c(c(-c4ccc(F)c(Cl)c4)n2)OCC=C3)C2CC2)ccc1OCCO (centres unmarked) [Compound 306] | < 1000 | < 1000 |  |  |  |  |
| COc1cc(C(=O)NCC(C)(O)c2cc3c(c(-c4ccc(F)c(Cl)c4)n2)OCC=C3)ccc1OCCO (centres unmarked) [Compound 307] | < 1000 | < 1000 |  |  |  |  |
| COc1cc(C(=O)NCC(=O)c2cc3c(c(-c4ccc(F)c(Cl)c4)n2)OCCC3(C)C)ccc1OCCO [Compound 311] | < 1000 | < 1000 |  |  |  |  |
| COc1ccc(C(=O)NCC(O)(c2cc(C(C)(C)N)cc(-c3ccc(F)c(Cl)c3)n2)C(F)(F)F)cc1OC (centres unmarked) [Compound 316] | < 1000 | < 1000 |  |  |  |  |
| COc1cc(C(=O)NCC(O)(c2cc(C(C)(C)N)cc(-c3ccc(F)cc3)n2)C(F)(F)F)ccc1O[C@H]1CCNC1=O (some centres unmarked) [Compound 319] | < 1000 | < 1000 |  |  |  |  |
| COc1cc(C(=O)NCC(O)(c2ccc(OC)c(-c3ccc(F)c(Cl)c3)n2)C(F)(F)F)ccc1OCc1ccn[nH]1 (centres unmarked) [Compound 332] | < 1000 | 1000 to 50000 |  |  |  |  |
| COc1cc(C(=O)NCC(O)(c2ccc(OC)c(-c3ccc(F)cc3)n2)C(F)(F)F)ccc1OCC(F)F (centres unmarked) [Compound 341] |  | < 1000 | < 1000 |  |  |  |
| COc1cc(C(=O)NCC(O)(c2cc(C3(NC(C)=O)CCC3)cc(-c3ccc(F)c(Cl)c3)n2)C(F)(F)F)ccc1OC1CC1 (centres unmarked) [Compound 354] | < 1000 | < 1000 |  |  |  |  |
| COc1cc(C(=O)NCC(O)(c2cc(C3(N)CCC3)cc(-c3ccc(F)c(Cl)c3)n2)C(F)(F)F)ccc1OC1CC1 (centres unmarked) [Compound 355] | < 1000 | < 1000 |  |  |  |  |
| COc1cc(C(=O)NCC(C)(OC)c2ccc(OC)c(-c3ccc(F)c(Cl)c3)n2)ccc1OCC(F)F (centres unmarked) [Compound 375] | < 1000 | 1000 to 50000 |  |  |  |  |
| COc1cc(C(=O)NCC(C)(OC)c2ccc(OC)c(-c3ccc(F)c(Cl)c3)n2)ccc1OC1CC1 (centres unmarked) [Compound 376] | < 1000 | < 1000 |  |  |  |  |
| COc1cc(C(=O)NC[C@@](O)(c2cc(C(C)(C)N)cc(-c3ccc(F)cc3)n2)C(F)(F)F)ccc1OC1CC1 [Compound 495] | < 1000 |  |  | 10 to 100 | < 1000 |  |
| COc1cc(C(=O)NCC(N)(c2ccc(OC)c(-c3ccc(F)c(Cl)c3)n2)C(F)F)ccc1OC1CC1 (centres unmarked) [Compound 517] | < 1000 |  |  | 10 to 100 | < 1000 |  |
| COc1cc(C(=O)NCC(N)(CF)c2ccc(OC)c(-c3ccc(F)c(Cl)c3)n2)ccc1OC1CC1 (centres unmarked) [Compound 518] | < 1000 |  |  | 10 to 100 | < 1000 |  |
| COCC(C)(NC(C)=O)c1cc(-c2ccc(F)c(Cl)c2)nc(C(O)(CNC(=O)c2ccc(OC3CC3)c(OC)c2)C(F)(F)F)c1 (centres unmarked) [Compound 537] | < 1000 |  |  | 10 to 100 | < 1000 |  |
| COCC(C)(N)c1cc(-c2ccc(F)c(Cl)c2)nc(C(O)(CNC(=O)c2ccc(OCCO)c(OC)c2)C(F)(F)F)c1 (centres unmarked) [Compound 541] | < 1000 |  |  | 10 to 100 | < 1000 |  |
| COc1cc(C(=O)NC[C@@](O)(c2cc(C(C)(C)N)cc(-c3ccc(F)c(Cl)c3)n2)C(F)(F)F)ccc1OCCO [Compound 549] | < 1000 |  |  | 10 to 100 | 1000 to 50000 |  |
| COc1cc(C(=O)NC[C@@](O)(c2cc(C(C)(C)N)cc(-c3ccc(F)cc3)n2)C(F)(F)F)ccc1OCCO [Compound 553] | < 1000 |  |  | 10 to 100 | < 1000 |  |
| COc1cc(C(=O)NCC(O)(c2cc(C(C)(C)N)cc(-c3ccc(I)nc3)n2)C(F)(F)F)ccc1OC1CC1 (centres unmarked) [Compound 557] | < 1000 |  |  | 10 to 100 | < 1000 |  |
| COc1cc(C(=O)NCC(O)(c2cc3c(c(-c4ccc(F)cc4)n2)OCC3(N)C(C)C)C(F)(F)F)ccc1OCCO (centres unmarked) [Compound 565] | < 1000 |  |  | 10 to 100 | < 1000 |  |

| SMILES | IC50 (recombinant RSV complex) [nM] | EC50 (RSV replicon) [nM] | IC50 (recombinant RSV complex; read-out: IC50 (compound concentration at which the enzyme-catalyzed rate was reduced by 50%), 10 nM recombinant RSV complex, 2 h at 30° C., Tables E, F and G list compounds by IC50 band) [nM] | CC50 at 5 days [1] [µM] | EC50 [2, 3] [nM] | EC50 [2, 4] [nM] |
| --- | --- | --- | --- | --- | --- | --- |
| COc1cc(C(=O)NCC(O)(c2cc3c(c(-c4ccc(F)cc4)n2)OCC3(N)C(C)C)C(F)(F)F)ccc1OC[C@@H](C)O (some centres unmarked) [Compound 568] | < 1000 |  |  | 10 to 100 | < 1000 |  |
| CC(C)(N)c1cc(-c2ccc(F)cc2)nc(C(O)(CNC(=O)c2ccc3c(c2)NC(=O)C3)C(F)(F)F)c1 (centres unmarked) [Compound 570] | < 1000 |  |  | 10 to 100 |  | < 1000 |
| COc1cc(C(=O)NCC(O)(c2cc(C(C)(C)N)cc(-c3ccc(F)c(Cl)c3)n2)C(F)(F)F)ccc1NC(C)=O (centres unmarked) [Compound 592] | < 10000 |  |  | 10 to 100 | < 1000 |  |
| COc1cc(C(=O)NCC(O)(c2cc(C(C)(C)N)cc(-c3ccc(F)c(Cl)c3)n2)C(F)(F)F)ccc1NS(C)(=O)=O (centres unmarked) [Compound 593] | < 1000 |  |  | 10 to 100 | < 1000 |  |
| COc1cc(C(=O)NCC(O)(c2cc3c(c(-c4ccc(F)cc4)n2)OCC3(C)N)C(F)(F)F)ccc1OC1CC(O)C1 (centres unmarked) [Compound 597] | < 10000 |  |  | 10 to 100 | < 1000 |  |
| COc1cc(C(=O)NCC(O)(c2cc(C(C)(C)N)cc(-c3ccc(F)cc3)n2)C(F)(F)F)ccc1-c1ccncc1 (centres unmarked) [Compound 599] | < 1000 |  |  | 10 to 100 | < 1000 |  |
| COc1cc(C(=O)NC[C@@](O)(c2cc3c(c(-c4ccc(C#N)cc4)n2)OC[C@]3(C)N)C(F)(F)F)ccc1OCCO [Compound 604b] | < 10000 |  |  | > 100 | 1000 to 50000 |  |
| Cc1nc(C(=O)NCC(O)(c2cc(C(C)(C)N)cc(-c3ccc(F)cc3)n2)C(F)(F)F)co1 (centres unmarked) [Compound 607] | < 10000 |  |  | 10 to 100 | 1000 to 50000 |  |
| Cc1ncc(C(=O)NCC(O)(c2cc(C(C)(C)N)cc(-c3ccc(F)cc3)n2)C(F)(F)F)o1 (centres unmarked) [Compound 608] | < 10000 |  |  | > 100 | 1000 to 50000 |  |
| Cc1ncc(C(=O)NCC(O)(c2cc(C(C)(C)N)cc(-c3ccc(F)cc3)n2)C(F)(F)F)[nH]1 (centres unmarked) [Compound 609] | < 10000 |  |  | 10 to 100 | 1000 to 50000 |  |
| CC(C)(N)c1cc(-c2ccc(F)cc2)nc(C(O)(CNC(=O)c2ccc3oc(=O)[nH]c3c2)C(F)(F)F)c1 (centres unmarked) [Compound 610] | < 1000 |  |  | 10 to 100 |  | < 1000 |
| COc1cc(C(=O)NCC(O)(c2ccc(OC)c(-c3ccc(F)cc3)n2)C(F)(F)F)ccc1OCCO (centres unmarked) [Compound 619] | < 1000 |  |  | 10 to 100 | < 1000 |  |
| COc1cc(C(=O)NCC(O)(c2cc(C(C)(C)NC(C)=O)cc(-c3ccc(F)cc3)n2)C(F)(F)F)ccc1OC[C@@H](C)O (some centres unmarked) [Compound 620] | < 1000 |  |  | > 100 |  | < 1000 |
| COc1cc(C(=O)NC[C@@](O)(c2cc3c(c(-c4ccc(F)cc4)n2)OC[C@]3(C)N)C(F)(F)F)ccc1OC[C@@H](C)O [Compound 629] | < 1000 |  |  | 10 to 100 | < 1000 |  |
| COc1cc(C(=O)NC[C@](O)(c2cc3c(c(-c4ccc(F)cc4)n2)OC[C@]3(C)N)C(F)(F)F)ccc1OC[C@@H](C)O [Compound 631] | < 1000 |  |  | 10 to 100 | < 1000 |  |
| COc1cc(C(=O)NC[C@](O)(c2cc3c(c(-c4ccc(F)cc4)n2)OC[C@@]3(C)N)C(F)(F)F)ccc1OC[C@@H](C)O [Compound 632] | < 1000 |  |  | 10 to 100 | < 1000 |  |
| COc1cc(C(=O)NC[C@@](O)(c2cc3c(c(-c4ccc(F)cc4)n2)OCC3(C)CN)C(F)(F)F)ccc1OCCO (some centres unmarked) [Compound 633a] | < 1000 |  |  | 10 to 100 | 1000 to 50000 |  |
| CC(C)(N)c1cc(-c2ccc(F)cc2)nc(C(O)(CNC(=O)c2ccc3c(c2)CNC(=O)N3)C(F)(F)F)c1 (centres unmarked) [Compound 639] | < 1000 |  |  | 10 to 100 | 1000 to 50000 |  |
| COc1cc(C(=O)NC[C@](O)(c2cc3c(c(-c4ccc(F)cc4)n2)OCC3(N)CO)C(F)(F)F)ccc1OC1CC1 (some centres unmarked) [Compound 654] | < 1000 |  |  | 10 to 100 | < 1000 |  |
| COc1cc(C(=O)NCC(O)(c2cc3c(c(-c4ccc(Cl)c(Cl)c4)n2)OCC3(C)N)C(F)(F)F)ccc1OCCO (centres unmarked) [Compound 662] | < 1000 |  |  | 10 to 100 | < 1000 |  |
| COc1cc(C(=O)NCC(O)(c2cc3c(c(-c4ccc(Cl)c(F)c4)n2)OCC3(C)N)C(F)(F)F)ccc1CO[C@@H](C)O (some centres unmarked) [Compound 666] | < 1000 |  |  | 10 to 100 | < 1000 |  |
| COc1cc(C(=O)NCC(O)(c2cc3c(c(-c4ccc(C(F)(F)F)nc4)n2)OCC3(C)N)C(F)(F)F)ccc1OCCO (centres unmarked) [Compound 673] | < 10000 |  |  | > 100 | 1000 to 50000 |  |
